Data taken from patent US6063804A, “Pyrrole compounds” (Adir et Compagnie, priority 1997, dated 2000).
Like-named read-outs stand apart in the source and are kept apart here.

How the values were obtained:
cyclooxygenase 1 (COX 1) = biological target: T1, cyclooxygenase 1 (COX 1) (Mus musculus, UniProt P22437); experiment: Inhibitory activity in relation to COX 1 in peritoneal macrophages exposed to zymosan; format: cell-based; conditions: mice peritoneal macrophages
T1 construct: using mice peritoneal macrophages exposed to inflammatory stimuli (zymosan and LPS, respectively); endogenous in cells; host or cells: mouse peritoneal macrophages exposed to zymosan
T1 sequence (P22437 27-602): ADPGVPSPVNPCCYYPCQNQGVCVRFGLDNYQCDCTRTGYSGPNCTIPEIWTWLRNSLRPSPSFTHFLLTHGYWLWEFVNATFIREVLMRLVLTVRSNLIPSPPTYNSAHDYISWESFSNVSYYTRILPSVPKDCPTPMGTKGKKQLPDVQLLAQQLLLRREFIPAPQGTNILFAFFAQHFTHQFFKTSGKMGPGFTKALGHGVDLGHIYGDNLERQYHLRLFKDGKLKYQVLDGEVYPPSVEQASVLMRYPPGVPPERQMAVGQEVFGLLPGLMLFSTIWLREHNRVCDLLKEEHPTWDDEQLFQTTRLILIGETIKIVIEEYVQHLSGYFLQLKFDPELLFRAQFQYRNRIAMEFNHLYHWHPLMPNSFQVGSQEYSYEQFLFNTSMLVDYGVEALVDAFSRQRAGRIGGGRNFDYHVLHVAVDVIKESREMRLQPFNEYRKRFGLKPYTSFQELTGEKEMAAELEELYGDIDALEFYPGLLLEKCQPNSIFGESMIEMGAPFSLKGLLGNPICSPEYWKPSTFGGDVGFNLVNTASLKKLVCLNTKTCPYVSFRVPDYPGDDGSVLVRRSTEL
Procedure: (§1) The inhibitory activities of the compounds in relation to COX 1 and COX 2 were evaluated using mice peritoneal macrophages exposed to inflammatory stimuli (zymosan and LPS, respectively) in accordance with the method described by Tordjman el al., Biochimica et Biophysica Acta, 1995, 1256, 249-56.

cyclooxygenase 2 (COX 2) = biological target: T2, cyclooxygenase 2 (COX 2) (Mus musculus, UniProt Q05769); experiment: Inhibitory activity in relation to COX 2 in peritoneal macrophages exposed to LPS; format: cell-based
T2 construct: using mice peritoneal macrophages exposed to inflammatory stimuli (zymosan and LPS, respectively); endogenous in cells; host or cells: mouse peritoneal macrophages exposed to LPS
T2 sequence (Q05769 18-604): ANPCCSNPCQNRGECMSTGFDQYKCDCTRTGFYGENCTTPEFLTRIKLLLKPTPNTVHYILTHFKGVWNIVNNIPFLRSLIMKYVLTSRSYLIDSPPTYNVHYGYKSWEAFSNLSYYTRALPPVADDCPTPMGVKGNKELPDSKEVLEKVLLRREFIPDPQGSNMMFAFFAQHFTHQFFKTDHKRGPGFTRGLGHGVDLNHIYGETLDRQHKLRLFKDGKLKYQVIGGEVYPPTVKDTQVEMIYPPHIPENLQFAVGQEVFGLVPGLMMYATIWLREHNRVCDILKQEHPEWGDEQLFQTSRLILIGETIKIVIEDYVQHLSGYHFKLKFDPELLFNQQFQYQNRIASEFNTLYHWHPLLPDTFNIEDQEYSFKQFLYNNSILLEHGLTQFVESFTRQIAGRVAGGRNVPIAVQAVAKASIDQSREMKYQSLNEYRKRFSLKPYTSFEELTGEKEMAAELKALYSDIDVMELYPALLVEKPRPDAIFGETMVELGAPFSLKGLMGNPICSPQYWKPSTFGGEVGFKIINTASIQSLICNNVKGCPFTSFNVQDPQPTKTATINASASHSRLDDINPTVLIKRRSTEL
Procedure: as §1

[1] = test system: production of prostaglandins; experiment: Inhibition of prostaglandin production in the carrageenin air-pouch model; format: in vivo; conditions: oral, mouse
Text: In addition, those compounds exert an activity in animals especially by inhibiting the production of prostaglandins in the carrageenin air-pouch model in the mouse (Whittle, B. J. R. et al., Nature, 1980, 284, 271-273; Masferrer, J. L. el al., Proc. Natl. Acad. Sci. USA, 1994, 91, 3228-3232).

[2] = test system: NO production in mouse peritoneal macrophages; experiment: Inhibition of NO production in peritoneal macrophages stimulated with LPS; format: cell-based; conditions: Peritoneal macrophage
[3] = test system: IL1β production by THP1 line cells; experiment: Inhibition of production of IL1β by THP1 line cells stimulated with LPS; format: cell-based; conditions: Homo sapiens, THP-1

Compound | IC50 (cyclooxygenase 1 (COX 1)) | also measured
c1ccc(-c2[nH]c(-c3ccccc3)c3c2CCCC3)cc1 [Example 2, 1,3-diphenyl-4,5,6,7-tetrahydro-2H-isoindole] | 100 to 500 nM | IC50 (cyclooxygenase 2 (COX 2); read-out: IC50 cox 2, mice peritoneal macrophages): 1 nM
Fc1ccc(-c2[nH]c(-c3ccc(F)cc3)c3c2C2CCC3C2)cc1 [Example 19, 1,3-di-(4-fluorophenyl)-4,7-methano-4,5,6,7-tetrahydro-2H-isoindole] | 100 nM | ED50 [1]: 2.5 mg/kg; IC50 [2]: 2500 nM
Fc1ccc(-c2[nH]c(-c3ccc(F)cc3)c3c2CCCC3)cc1 [Example 1, 1,3-di-(4-fluorophenyl)-4,5,6,7-tetrahydro-2H-isoindole] | 100 to 500 nM | IC50 (cyclooxygenase 2 (COX 2); mice peritoneal macrophages, read-out: IC50 cox 2): 1 nM
CC1Cc2c(-c3ccccc3)[nH]c(-c3ccccc3)c2CC1C (stereo not shown) [Example 9, 1,3-diphenyl-5,6-dimethyl-4,5,6,7-tetrahydro-2H-isoindole] | – | IC50 [3]: ~1000 nM

More lines, main results first:

IC50 (cyclooxygenase 1 (COX 1)) | Compound | also measured
100 nM | C1=CCc2c(-c3ccccc3)[nH]c(-c3ccccc3)c2C1 [Example 5, 1,3-diphenyl-4,7-dihydro-2H-isoindole] | –
100 to 500 nM | c1ccc(-c2[nH]c(-c3ccccc3)c3c2CCC3)cc1 [Example 4, 1,3-diphenyl-2,4,5,6-tetrahydrocyclopenta[c]pyrrole] | –
